Experimental data published in PMC6083693, “Ligand-based pharmacophore model for the discovery of novel CXCR2 antagonists as anti-cancer metastatic agents” (Royal Society Open Science, 2018).
Read-outs that look alike come from different tables or passages of the source.

Columns and labels:
Assay type in all cases: cell-based
CXCR2 = target: T1, CXCR2 (Homo sapiens, UniProt P25025); test: CXCR2 antagonistic activity assay (IL-8-induced intracellular calcium change, Fluo-4 AM, HEK293 cells stably expressing Gα16 and CXCR2); details: for CXCR2 antagonistic activity (in words): HEK293 cells expressing Gα16 and CXCR2
T1 construct: expressed in transfected cells; host or cells: HEK293 cells stably expressing Gα16 and CXCR2
T1 sequence (P25025 1-360): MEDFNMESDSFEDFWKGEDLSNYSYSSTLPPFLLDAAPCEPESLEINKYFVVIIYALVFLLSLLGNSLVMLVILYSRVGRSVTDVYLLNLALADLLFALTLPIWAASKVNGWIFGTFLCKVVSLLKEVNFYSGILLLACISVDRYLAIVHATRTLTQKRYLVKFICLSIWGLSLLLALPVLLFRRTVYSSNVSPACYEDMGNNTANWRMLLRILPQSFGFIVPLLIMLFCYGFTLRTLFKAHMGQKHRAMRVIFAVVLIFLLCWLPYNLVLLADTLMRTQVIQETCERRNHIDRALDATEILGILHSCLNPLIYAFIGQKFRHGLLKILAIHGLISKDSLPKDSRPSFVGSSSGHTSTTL
Protocol: Human embryonic kidney 293 (HEK293) cells stably expressing Gα16 and CXCR2 were seeded onto 96-well plates and incubated for 24 h. Cells were loaded with 2 µmol l^−1 Fluo-4 AM in Hank's balanced salt solution (HBSS, containing KCl 5.4 mmol l^−1, Na2HPO4 0.3 mmol l^−1, KH2PO4 0.4 mmol l^−1, NaHCO3 4.2 mmol l^−1, CaCl2 1.3 mmol l^−1, MgCl2 0.5 mmol l^−1, Mg2SO4 0.6 mmol l^−1, NaCl 137 mmol l^−1, BSA 5 g l^−1, glucose 5.6 mmol l^−1 and sulfinpyrazone 250 µmol l^−1, pH 7.4) at 37°C for 45 min. The excess dye was removed and 50 µl of HBSS containing test compounds was added. After incubation at room temperature for 10 min, 25 µl of HBSS containing IL-8 was dispensed into the well using a FlexStation II microplate reader (Molecular Devices, Sunnyvale, CA, USA), and intracellular calcium change was recorded with an excitation wavelength of 485 nm and an emission wavelength of 525 nm. The half maximal inhibitory concentrations (IC50) of compounds were determined with the […] PRISM software by constructing their dose–response curves.

NCI-H1299 cells [1] = test: Anti-proliferation assay (MTT); details: NCI-H1299, 0.1, 1, 10 and 100 µg ml^−1, 72 h
Protocol: NCI-H1299 cells (provided by Tumor Pharmacology and Endocrine Laboratory, College of Pharmaceutical Sciences, Zhe Jiang University) were seeded in 96-well plates at a density of 4000 cells well^−1. After 24 h of adherence, cells were incubated with medium alone or medium containing test compounds for 72 h. Four different concentrations (100, 10, 1 and 0.1 µg ml^−1) of both antagonists were used. Cell proliferation was determined by the thiazolyl blue tetrazolium bromide (MTT) assay. Growth inhibition was calculated as % = [1 − (A/B)] × 100, where A and B were the absorbance of treated and untreated cells, respectively.
The highly metastatic NCI-H1299 lung cancer cell line was selected for the following in vitro biological evaluation.

NCI-H1299 cells [2] = test: Wound healing assay (cell migration); details: Homo sapiens; NCI-H1299, 50 µg ml^−1, 48 h treatment; read-out: cell migration inhibitory rate
Protocol: NCI-H1299 cells (5 × 10^5 cell well^−1) were seeded in a six-well tissue culture plate and grown to 90% confluence. After the medium was removed, a gap with constant width was created in the centre of the cell well by scratching the monolayer with a sterile yellow micropipette tip. […] The wound closure was monitored and photographed at 0, 12, 24, 36 and 48 h with the IMAGEPRO software. The cell migration inhibitory rate was calculated as % = [1 − (0 h wound area − 12, 24, 36 or 48 h wound area)/0 h wound area] × 100.
The wound area was calculated with the IMAGEPRO software.

[3] = HEK293 cells expressing Gα16 and CXCR2, IL-8 stimulated calcium change, read-out: CXCR2 IC50

| IC50 (CXCR2; [3]) [µM] | SMILES | other results |
| --- | --- | --- |
| 25.4 | N#Cc1ccc(Nc2nnc(-c3ccccc3Br)[nH]2)c(O)c1 [Compound 1c, 4-((5-(2-bromophenyl)-4H-1,2,4-triazol-3-yl)amino)-3-hydroxybenzonitrile] | – |
| > 100 | N#Cc1ccc(Nc2nnc(-c3ccc(C(F)(F)F)cc3)[nH]2)c(O)c1 [Compound 1d, 3-hydroxy-4-((5-(4-(trifluoromethyl)phenyl)-4H-1,2,4-triazol-3-yl)amino)benzonitrile] | – |
| > 100 | CN(C)C(=O)c1cccc(Nc2nccc(Nc3ccccc3)n2)c1O [Compound 2, 2-hydroxy-N,N-dimethyl-3-((4-(phenylamino)pyrimidin-2-yl)amino)benzamide] | CXCR2 antagonistic activity (in words) (CXCR2): loss of CXCR2 antagonistic activity |
| > 100 | CN(C)C(=O)c1cccc(Nc2nn(Cc3ccccc3)c(=O)[nH]2)c1O [Compound 3, 3-((1-benzyl-5-oxo-4,5-dihydro-1H-1,2,4-triazol-3-yl)amino)-2-hydroxy-N,N-dimethylbenzamide] | CXCR2 antagonistic activity (in words) (CXCR2): loss of CXCR2 antagonistic activity |

The remaining lines, values behind:

| SMILES | IC50 (CXCR2; [3]) [µM] | other results |
| --- | --- | --- |
| CN(C)C(=O)c1cccc(Nc2nnc(-c3ccccc3)[nH]2)c1O [Compound 1a, 2-hydroxy-N,N-dimethyl-3-((5-phenyl-4H-1,2,4-triazol-3-yl)amino)benzamide] | 76 | – |
| N#Cc1ccc(Nc2nnc(-c3ccccc3)[nH]2)c(O)c1 [Compound 1b, 3-hydroxy-4-((5-phenyl-4H-1,2,4-triazol-3-yl)amino)benzonitrile] | 18.5 | – |
| CC(C)S(=O)(=O)c1c(Cl)ccc(Nc2nnc(-c3ccccc3)[nH]2)c1O [Compound 1e, 3-chloro-2-(isopropylsulfonyl)-6-((5-phenyl-4H-1,2,4-triazol-3-yl)amino)phenol] | – | IC50 (CXCR2): 14.8 µM; cytotoxicity (growth inhibition, MTT) (NCI-H1299 cells [1]): no cytotoxicity; inhibition at 50 µg/mL (NCI-H1299 cells [2]): 72% |
